# Test results taken from US20240368173A1, “TRICYCLIC GPR65 MODULATORS” (PATHIOS THERAPEUTICS LIMITED, priority 2021, published 2024).
# Target: human recombinant GPR65 (Homo sapiens, UniProt Q8IYL9)
# Experiment: Human GPR65 cAMP HTRF antagonist assay
# Format: cell-based
# Summary of the method: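 Antagonism measured as suppression of the cAMP rise when pH is dropped to 7.2 (control wells pH 7.9) in 1321N1 cells stably carrying human GPR65. Cells in KRH with 1 mM IBMX and 200 μM EDTA saw compound 30 min, then acid stimulation 30 min; HTRF cAMP detection, normalised, 4-parameter logistic IC50.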
# Chain of human recombinant GPR65 (Q8IYL9 whole entry): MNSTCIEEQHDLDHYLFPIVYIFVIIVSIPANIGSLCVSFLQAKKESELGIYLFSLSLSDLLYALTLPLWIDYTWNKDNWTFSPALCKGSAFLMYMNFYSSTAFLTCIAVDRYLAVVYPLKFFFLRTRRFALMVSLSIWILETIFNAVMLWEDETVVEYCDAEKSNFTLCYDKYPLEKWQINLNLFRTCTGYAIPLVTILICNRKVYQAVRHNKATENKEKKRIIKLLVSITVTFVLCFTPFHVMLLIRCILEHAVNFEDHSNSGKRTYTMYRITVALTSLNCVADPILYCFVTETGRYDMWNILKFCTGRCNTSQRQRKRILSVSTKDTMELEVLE
row,Compound,IC50 [nM]
1,"CN1C(=O)Cc2ccc(-c3cc(F)c(NC(=O)N4[C@H]5CC[C@@H]4c4n[nH]c(=O)cc4C5)cc3Cl)cc21 [Compound 163, (6S,9R)-N-(5-Chloro-2-fluoro-4-(1-methyl-2-oxoindolin-6-yl)phenyl)-3-oxo-3,5,6,7,8,9-hexahydro-2H-6,9-epiminocyclohepta[c]pyridazine-10-carboxamide]",< 500
2,"Cn1ncc2cc(-c3cc(F)c(NC(=O)N4[C@H]5CC[C@@H]4c4n[nH]c(=O)cc4C5)cc3Cl)ccc21 [Compound 164, (6S,9R)-N-(5-Chloro-2-fluoro-4-(1-methyl-1H-indazol-5-yl)phenyl)-3-oxo-3,5,6,7,8,9-hexahydro-2H-6,9-epiminocyclohepta[c]pyridazine-10-carboxamide]",< 500
3,"O=C(Nc1cc(Cl)c(-c2cnc3nonc3c2)cc1F)N1[C@H]2CC[C@@H]1c1n[nH]c(=O)cc1C2 [Compound 165, (6S,9R)-N-(4-([1,2,5]Oxadiazolo[3,4-b]pyridine-6-yl)-5-chloro-2-fluorophenyl)-3-oxo-3,5,6,7,8,9-hexahydro-2H-6,9-epiminocyclohepta[c]pyridazine-10-carboxamide]",< 500
4,"O=C(Nc1cc(-c2ccccc2)on1)N1[C@H]2CC[C@@H]1c1n[nH]c(=O)cc1C2 [Compound 166, (6S,9R)-3-Oxo-N-(5-phenylisoxazol-3-yl)-3,5,6,7,8,9-hexahydro-2H-6,9-epiminocyclohepta[c]pyridazine-10-carboxamide]",< 500
5,"O=C(Nc1cc(Cl)c(-c2ccc3nonc3c2)cc1F)N1[C@H]2CC[C@@H]1c1c[nH]c(=O)cc1C2 [Compound 167, (6S,9R)-N-(4-(Benzo[c][1,2,5]oxadiazol-5-yl)-5-chloro-2-fluorophenyl)-3-oxo-3,5,6,7,8,9-hexahydro-2H-6,9-epiminocyclohepta[c]pyridine-10-carboxamide]",< 500
6,"O=C(Nc1cc(Cl)c(-c2ccc3nsnc3c2)cc1F)N1[C@H]2CC[C@@H]1c1n[nH]c(=O)cc1C2 [Compound 168, (6S,9R)-N-(4-(Benzo[c][1,2,5]thiadiazol-5-yl)-5-chloro-2-fluorophenyl)-3-oxo-3,5,6,7,8,9-hexahydro-2H-6,9-epiminocyclohepta[c]pyridazine-10-carboxamide]",< 500
7,"O=C(Nc1cc(Cl)c(-c2ccc(F)nc2)cc1F)N1[C@H]2CC[C@@H]1c1ccnc(F)c1C2 [Compound 169, (5R,8S)-N-(5-Chloro-2-fluoro-4-(6-fluoropyridin-3-yl)phenyl)-1-fluoro-6,7,8,9-tetrahydro-5H-5,8-epiminocyclohepta[c]pyridine-10-carboxamide]",< 500
8,"Cc1nc2ccc(-c3cc(F)c(NC(=O)N4[C@H]5CC[C@@H]4c4n[nH]c(=O)cc4C5)cc3Cl)cc2o1 [Compound 170, (6S,9R)-N-(5-Chloro-2-fluoro-4-(2-methylbenzo[d]oxazol-6-yl)phenyl)-3-oxo-3,5,6,7,8,9-hexahydro-2H-6,9-epiminocyclohepta[c]pyridazine-10-carboxamide]",< 500
9,"COc1ccc(-c2cc(F)c(NC(=O)N3[C@H]4CC[C@@H]3c3n[nH]c(=O)cc3C4)cc2Cl)cn1 [Compound 171, (6S,9R)-N-(5-Chloro-2-fluoro-4-(6-methoxypyridin-3-yl)phenyl)-3-oxo-3,5,6,7,8,9-hexahydro-2H-6,9-epiminocyclohepta[c]pyridazine-10-carboxamide]",< 500
10,"O=C(Nc1cc(Cl)c(-c2ccc(F)nc2)cc1F)N1[C@H]2CC[C@@H]1c1c[nH]c(=O)cc1C2 [Compound 172, (6S,9R)-N-(5-Chloro-2-fluoro-4-(6-fluoropyridin-3-yl)phenyl)-3-oxo-3,5,6,7,8,9-hexahydro-2H-6,9-epiminocyclohepta[c]pyridine-10-carboxamide]",< 500
11,"O=C(Nc1cc(Cl)c(-c2ccncc2)cc1F)N1[C@H]2CC[C@@H]1c1n[nH]c(=O)cc1C2 [Compound 173, (6S,9R)-N-(5-Chloro-2-fluoro-4-(pyridin-4-yl)phenyl)-3-oxo-3,5,6,7,8,9-hexahydro-2H-6,9-epiminocyclohepta[c]pyridazine-10-carboxamide]",< 500
